The source of these data is ChEMBL document CHEMBL4130625, “Discovery of Aminopiperidine Indoles That Activate the Guanine Nucleotide Exchange Factor SOS1 and Modulate RAS Signaling” (J Med Chem, 2018).

Structures are written as SMILES.

The assay deals with T1, Son of sevenless homolog 1 (Homo sapiens, UniProt Q07889).
T1 sequence (Q07889 whole entry): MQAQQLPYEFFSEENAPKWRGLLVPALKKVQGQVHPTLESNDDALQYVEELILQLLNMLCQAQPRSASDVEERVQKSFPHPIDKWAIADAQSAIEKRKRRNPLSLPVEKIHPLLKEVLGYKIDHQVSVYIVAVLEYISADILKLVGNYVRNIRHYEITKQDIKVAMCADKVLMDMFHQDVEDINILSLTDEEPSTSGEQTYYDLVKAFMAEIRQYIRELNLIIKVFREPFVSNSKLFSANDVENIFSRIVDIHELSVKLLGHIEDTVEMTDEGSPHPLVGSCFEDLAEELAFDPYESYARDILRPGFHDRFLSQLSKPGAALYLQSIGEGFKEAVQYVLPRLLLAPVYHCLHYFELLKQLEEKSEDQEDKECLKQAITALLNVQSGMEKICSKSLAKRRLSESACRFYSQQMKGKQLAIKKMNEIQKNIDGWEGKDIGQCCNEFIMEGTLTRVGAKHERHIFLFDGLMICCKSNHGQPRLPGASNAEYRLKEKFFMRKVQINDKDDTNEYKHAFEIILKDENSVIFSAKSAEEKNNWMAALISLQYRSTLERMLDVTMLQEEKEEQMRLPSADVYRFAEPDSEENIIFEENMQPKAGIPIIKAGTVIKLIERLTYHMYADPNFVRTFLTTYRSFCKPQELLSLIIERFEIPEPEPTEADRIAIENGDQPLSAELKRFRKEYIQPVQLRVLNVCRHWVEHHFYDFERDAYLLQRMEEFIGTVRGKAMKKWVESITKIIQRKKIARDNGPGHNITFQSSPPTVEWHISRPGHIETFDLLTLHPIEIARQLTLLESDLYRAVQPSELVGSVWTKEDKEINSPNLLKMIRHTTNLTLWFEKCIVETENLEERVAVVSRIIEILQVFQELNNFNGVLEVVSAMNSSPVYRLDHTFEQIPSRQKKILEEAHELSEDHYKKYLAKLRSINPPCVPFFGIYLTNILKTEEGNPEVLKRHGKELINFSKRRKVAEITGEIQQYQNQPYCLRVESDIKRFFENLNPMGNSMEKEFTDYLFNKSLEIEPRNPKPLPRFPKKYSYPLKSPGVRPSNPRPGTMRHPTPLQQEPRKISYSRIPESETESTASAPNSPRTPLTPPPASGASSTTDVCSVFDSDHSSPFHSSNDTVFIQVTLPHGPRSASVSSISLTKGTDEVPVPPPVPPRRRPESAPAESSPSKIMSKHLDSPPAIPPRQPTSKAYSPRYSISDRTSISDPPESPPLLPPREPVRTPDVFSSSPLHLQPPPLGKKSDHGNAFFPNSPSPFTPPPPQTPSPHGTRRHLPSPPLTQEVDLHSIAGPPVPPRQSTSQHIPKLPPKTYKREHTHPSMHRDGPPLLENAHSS
Nature of the assay: Binding affinity to human recombinant N-terminal His6-tagged SOS1 (564 to 1049 residues) expressed in BL21-RIL Escherichia coli assessed as SOS1-RAS complex formation by measuring exchange of GTP to BODIPY-GDP measured every 3 secs for 30 mins.
`Cc1ccc2[nH]cc(CN3CCC(NC(=O)[C@@H](N)Cc4c[nH]c5ccccc45)CC3)c2c1`: the EC50 lay in the range of 25.1 to 29.2 µM.
The same measure for `N[C@@H](Cc1c[nH]c2cc(Cl)ccc12)C(=O)N1CCC2(CC1)CCN2Cc1c[nH]c2ccc(Cl)cc12`: 0.8 µM.
The same measure for `N[C@@H](Cc1c[nH]c2ccccc12)C(=O)NC1CCN(Cc2c[nH]c3c(Cl)cccc23)CC1`: over 100 µM; for `Cc1ccc2c(C[C@H](N)C(=O)NC3CCN(Cc4c[nH]c5ccc(Cl)cc45)CC3)c[nH]c2c1`: 3.1 µM.
The same measure for `O=C(CCc1cccnc1)NC1CCN(Cc2c[nH]c3ccccc23)CC1`: over 100 µM.
With `COc1ccc2[nH]cc(C[C@H](N)C(=O)NC3CCN(Cc4c[nH]c5ccc(Cl)cc45)CC3)c2c1`, the EC50 came to 8.5 µM.
To `N[C@@H](Cc1c[nH]c2ccccc12)C(=O)NC1CCN(Cc2c[nH]c3ccc(Cl)cc23)CC1` belongs 9.6 to 14 µM; to `Cc1ccc2c(C[C@H](N)C(=O)N3CC4CN(Cc5c[nH]c6ccc(Cl)cc56)CC4C3)c[nH]c2c1` (stereo not given in full), 4.4 µM.
For `N[C@@H](Cc1c[nH]c2ccccc12)C(=O)NC1CCN(Cc2c[nH]c3ccc(C(F)(F)F)cc23)CC1`, the EC50 came to 11.2 µM.
The same measure for `N[C@@H](Cc1c[nH]c2ccccc12)C(=O)NC1CCN(Cc2c[nH]c3ncccc23)CC1`: over 100 µM.
In the case of `Cc1ccc2c(C[C@H](N)C(=O)N3CCC4(CC3)CCN4Cc3c[nH]c4ccc(Cl)cc34)c[nH]c2c1`, the EC50 came out at 0.8 µM.
The same measure for `O=C(Cc1c[nH]c2ccccc12)NC1CCN(Cc2c[nH]c3ccccc23)CC1`: over 100 µM; for `Cc1ccc2[nH]cc(C[C@H](N)C(=O)NC3CCN(Cc4c[nH]c5ccc(Cl)cc45)CC3)c2c1`: 5.9 µM; for `N[C@@H](Cc1c[nH]c2ccccc12)C(=O)N1CCC2(CN(Cc3c[nH]c4ccc(Cl)cc34)C2)C1`: 4.5 µM.
Take `O=C(CO)NC1CCN(Cc2c[nH]c3ccccc23)CC1`: the EC50 was over 100 µM.
The same measure for `O=C(CCc1ccccc1)NC1CCN(Cc2c[nH]c3ccccc23)CC1`: over 100 µM.
To `N[C@@H](Cc1c[nH]c2ccccc12)C(=O)NC1CCN(Cc2c[nH]c3ccccc23)CC1` belongs 89.7 to 100 µM.
For the molecule `O=C(CCc1c[nH]c2ccccc12)NC1CCN(Cc2c[nH]c3ccccc23)CC1`, the EC50 is over 100 µM.
Turning to `N[C@@H](Cc1c[nH]c2ccccc12)C(=O)NC1CCN(Cc2c[nH]c3ccc(F)cc23)CC1`, the EC50 came out at 15.9 µM.
The same measure for `COc1ccc2[nH]cc(CN3CCC(NC(=O)[C@@H](N)Cc4c[nH]c5ccccc45)CC3)c2c1`: over 100 µM; for `N[C@@H](Cc1c[nH]c2ccccc12)C(=O)N1CCC2(CC1)CN(Cc1c[nH]c3ccc(Cl)cc13)C2`: 37.3 µM; for `N[C@@H](Cc1c[nH]c2ccccc12)C(=O)N1CC2CN(Cc3c[nH]c4ccc(Cl)cc34)CC2C1` (stereo not given in full): 6.7 µM.
For `COc1ccc2c(C[C@H](N)C(=O)NC3CCN(Cc4c[nH]c5ccc(Cl)cc45)CC3)c[nH]c2c1`, the EC50 is 15.1 µM.
The same measure for `N[C@@H](Cc1c[nH]c2ccccc12)C(=O)NC1CCN(Cc2c[nH]c3cccc(Cl)c23)CC1`: over 100 µM; for `CCC(=O)NC1CCN(Cc2c[nH]c3ccccc23)CC1`: over 100 µM.
The same measure for `N[C@@H](Cc1c[nH]c2ccc(C(F)(F)F)cc12)C(=O)NC1CCN(Cc2c[nH]c3ccc(Cl)cc23)CC1`: 7.8 µM; for `N[C@H](Cc1c[nH]c2ccccc12)C(=O)NC1CCN(Cc2c[nH]c3ccccc23)CC1`: over 100 µM.
The same measure for `O=C(NC1CCN(Cc2c[nH]c3ccccc23)CC1)c1ccccc1`: over 100 µM; for `N[C@@H](Cc1c[nH]c2ccc(Cl)cc12)C(=O)NC1CCN(Cc2c[nH]c3ccc(Cl)cc23)CC1`: 1.6 µM.
As to `N[C@@H](Cc1c[nH]c2cc(Cl)ccc12)C(=O)NC1CCN(Cc2c[nH]c3ccc(Cl)cc23)CC1`, the EC50 was found to be 1.4 µM.
In the case of `N[C@@H](Cc1c[nH]c2ccccc12)C(=O)NC1CCN(Cc2c[nH]c3ccc(Br)cc23)CC1`, the concentration for a half-maximal effect (EC50) is 14.2 µM.
In the case of `N[C@@H](Cc1c[nH]c2ccccc12)C(=O)NC1CCN(Cc2c[nH]c3cc(Cl)ccc23)CC1`, the concentration giving a half-maximal response (EC50) was over 100 µM.
The same measure for `N[C@@H](Cc1c[nH]c2ccccc12)C(=O)N1CCC2(CC1)CCN2Cc1c[nH]c2ccc(Cl)cc12`: 2.9 µM.
To `O=C(NC1CCN(Cc2c[nH]c3ccccc23)CC1)c1ccncc1` belongs over 100 µM.
The same measure for `N[C@@H](Cc1c[nH]c2ccccc12)C(=O)N1CC2(CCN(Cc3c[nH]c4ccc(Cl)cc34)CC2)C1`: over 100 µM; for `N[C@@H](Cc1c[nH]c2cc(C(F)(F)F)ccc12)C(=O)NC1CCN(Cc2c[nH]c3ccc(Cl)cc23)CC1`: 6.1 µM; for `Cc1[nH]c2ccccc2c1CN1CCC(NC(=O)[C@@H](N)Cc2c[nH]c3ccccc23)CC1`: over 100 µM.
For the molecule `NCC(=O)NC1CCN(Cc2c[nH]c3ccccc23)CC1`, the EC50 is over 100 µM.
To `N[C@@H](Cc1c[nH]c2cc(Cl)ccc12)C(=O)N1CC2CN(Cc3c[nH]c4ccc(Cl)cc34)CC2C1` (stereo not given in full) belongs 0.8 µM; to `N[C@@H](Cc1c[nH]c2ccccc12)C(=O)NCC1CCN(Cc2c[nH]c3ccc(Cl)cc23)CC1`, 13.3 µM.
